{
  "source": "patent US20220142914A1",
  "about": "“SUSPENSION FORMULATIONS OF HIGH LOAD DISPERSIONS” (Austin Research Labs Corp., priority 2018, published 2022)",
  "assay": "Endotoxin (LPS) adsorption capacity and efficiency of sorbents",
  "assay_type": "binding",
  "settings": "96,528 ± 9,726 EU used, about 38-39.5 mg sorbent, n=6",
  "data": [
    {"substance": "Polymycin B, -sulfate [PMB]", "values": [
      {"measurement": "Adsorption Capacity (EU/mg) ± SD", "value": "1,746 ± 265 EU/mg"},
      {"measurement": "Adsorption Efficiency, E (%) ± SD", "value": "69.66 ± 10.58", "unit": "%"},
      {"measurement": "LPS Conc. Post Incubation (EU/ml) ± SD", "value": "760 ± 265", "unit": "EU/ml"},
      {"measurement": "Log10 Reduction ± SD", "value": "0.538 ± 0.142"}
    ]}
  ]
}
